Test results taken from patent US20070172957A1, “Methods of identifying anti-inflammatory macrolides” (TAISHO PHARMACEUTICAL CO., LTD., priority 2004, published 2007).

Tested on: genes predictive for the anti-inflammatory macrolide effect
Assay: Genes statistically predictive of Clari response: differentially expressed with Clari but not the inactive macrolides MAA or Josa (Appendix E)
Format: cell-based
Text: In the case of the above-mentioned (i) related to arachidonic acid biosynthesis, specifically, methods of the embodiment involve assaying whether a test macrolide alters biosynthesis of arachidonic acid, alters the expression or activities of enzymes involved in the biosynthesis or activation of arachidonic acid (e.g., arachidonic acid CoA synthetase, delta-6 desaturase, fatty acid elongase, and delta-5 desaturase, AA-related genes in Tables 2 and 3), or alters the expression of genes identified as predictive for the anti-inflammatory macrolide effect (Appendix E). Assays in which arachidonic acid or gene expression or enzymatic activity is detected can be carried out after contacting a cell with a test macrolide. Any cell line that secretes prostaglandin or produces arachidonic acid can be used. Epithelial and macrophages lines (e.g., A549 or THP-1) are suitable for this purpose; other cell lines can be identified by carrying out assays such as those described in the specific Examples, below. Alternatively, screening assays can be carried out after adding a test macrolide to an in vitro cell system (e.g., a cellular extract or liver microsome preparation) or an in vitro enzyme assay system.

## CO[C@@H]1[C@@H](O[C@@H]2O[C@H](C)[C@@H](O[C@H]3C[C@@](C)(O)[C@@H](OC(=O)CC(C)C)[C@H](C)O3)[C@H](N(C)C)[C@H]2O)[C@@H](CC=O)C[C@@H](C)[C@@H](O)/C=C/C=C/C[C@@H](C)OC(=O)C[C@H]1OC(C)=O [josamycin]
SpotID 49757, MAA and Josa vs. Clari
  group mean, gene DDOST: 0.96
SpotID 49761, MAA and Josa vs. Clari
  group mean, gene BCL2L2: 0.85
SpotID 49767, MAA and Josa vs. Clari
  group mean, gene AD022: 0.96
SpotID 49767, pooled group mean
  mean group, AD022: 0.96
SpotID 49781, MAA and Josa vs. Clari
  group mean, gene P4HB: 0.98
SpotID 49787, MAA and Josa vs. Clari
  group mean, gene CYC1: 1.09
SpotID 49787, pooled group mean
  mean group, CYC1: 1.09
SpotID 49794, MAA and Josa vs. Clari
  group mean, gene BCL2L2: 0.86
SpotID 49800, pooled group mean
  mean group, AD022: 0.97
SpotID 49815, MAA and Josa vs. Clari
  group mean, gene CDKN2C: 1.06
SpotID 49820, MAA and Josa vs. Clari
  group mean, gene CYC1: 1.05
SpotID 49882, MAA and Josa vs. Clari
  group mean, gene LAMP2: 0.99
SpotID 49915, MAA and Josa vs. Clari
  group mean, gene ATP2B4: 1.23
SpotID 49915, pooled group mean
  mean group, ATP2B4: 1.23
SpotID 49922, MAA and Josa vs. Clari
  group mean, gene DHCR24: 1.00
SpotID 49930, MAA and Josa vs. Clari
  group mean, gene KIAA0169: 1.03
SpotID 49947, pooled group mean
  mean group, RFC1: 1.05
SpotID 49967, MAA and Josa vs. Clari
  group mean, gene CCNE2: 1.02
SpotID 49981, MAA and Josa vs. Clari
  group mean, gene BMP6: 0.94
SpotID 49989, MAA and Josa vs. Clari
  group mean, gene VTN: 1.19
SpotID 49990, MAA and Josa vs. Clari
  group mean, gene SRC: 0.99
SpotID 50011, MAA and Josa vs. Clari
  group mean, gene NFYC: 1.10
SpotID 50022, pooled group mean
  mean group, HIF1A: 1.07
SpotID 50049, MAA and Josa vs. Clari
  group mean, gene GNB2L1: 1.32
SpotID 50050, pooled group mean
  mean group, NDUFA2: 0.90
SpotID 50067, MAA and Josa vs. Clari
  group mean, gene MBTPS1: 0.95
SpotID 50079, MAA and Josa vs. Clari
  group mean, gene SCOP: 0.97
SpotID 50079, pooled group mean
  mean group, SCOP: 0.97
SpotID 50084, MAA and Josa vs. Clari
  group mean, gene IDI1: 0.90
SpotID 50085, MAA and Josa vs. Clari
  group mean, SpotID 50085 (gene symbol not given): 1.18
SpotID 50099, MAA and Josa vs. Clari
  group mean, gene CNOT3: 0.95
SpotID 50099, pooled group mean
  mean group, CNOT3: 0.95
SpotID 50103, MAA and Josa vs. Clari
  group mean, gene IRF5: 0.87
SpotID 50135, MAA and Josa vs. Clari
  group mean, gene RRBP1: 0.95
SpotID 50216, MAA and Josa vs. Clari
  group mean, SpotID 50216 (gene symbol not given): 0.95
SpotID 50222, MAA and Josa vs. Clari
  group mean, gene FLJ13868: 0.93
SpotID 50224, MAA and Josa vs. Clari
  group mean, gene HK2: 0.95
SpotID 50267, pooled group mean
  mean group, IL10RB: 0.98
SpotID 50284, MAA and Josa vs. Clari
  group mean, gene UQCR: 0.83
SpotID 50294, MAA and Josa vs. Clari
  group mean, gene TM7SF2: 1.01
SpotID 50302, MAA and Josa vs. Clari
  group mean, gene CDR2: 0.89
SpotID 50307, MAA and Josa vs. Clari
  group mean, gene MAX: 0.96
SpotID 50319, MAA and Josa vs. Clari
  group mean, gene BMP6: 0.98
SpotID 50332, MAA and Josa vs. Clari
  group mean, gene DAD1: 1.02
SpotID 50337, MAA and Josa vs. Clari
  group mean, gene FGFR2: 0.93
SpotID 50342, MAA and Josa vs. Clari
  group mean, gene IKKE: 0.94
SpotID 50342, pooled group mean
  mean group, IKKE: 0.94
SpotID 50349, MAA and Josa vs. Clari
  group mean, gene LOC51295: 1.01
SpotID 50349, pooled group mean
  mean group, LOC51295: 1.01
SpotID 50351, pooled group mean
  mean group, CFL1: 1.16
SpotID 50386, MAA and Josa vs. Clari
  group mean, gene TFAM: 1.05
SpotID 50399, MAA and Josa vs. Clari
  group mean, gene DGCR6L: 1.02
SpotID 50405, MAA and Josa vs. Clari
  group mean, gene CHERP: 1.00
SpotID 50412, MAA and Josa vs. Clari
  group mean, gene AGPAT1: 0.99
SpotID 50421, pooled group mean
  mean group, GOCAP1: 1.01
SpotID 50452, MAA and Josa vs. Clari
  group mean, gene SIGIRR: 0.96
SpotID 50464, MAA and Josa vs. Clari
  group mean, gene MMP15: 0.87
SpotID 50474, MAA and Josa vs. Clari
  group mean, gene CEBPA: 0.97
SpotID 50511, pooled group mean
  mean group, MGP: 0.83
SpotID 50513, MAA and Josa vs. Clari
  group mean, gene ARHC: 0.91
SpotID 50513, pooled group mean
  mean group, ARHC: 0.91
SpotID 50532, MAA and Josa vs. Clari
  group mean, gene PRKCBP1: 1.07
SpotID 50550, MAA and Josa vs. Clari
  group mean, gene PTPRT: 0.92
SpotID 50584, pooled group mean
  mean group, BN51T: 0.97
SpotID 50590, pooled group mean
  mean group, CKS2: 0.74
SpotID 50591 (gene symbol not given), pooled group mean
  mean group, SpotID 50591: 1.01
SpotID 50591, MAA and Josa vs. Clari
  group mean, SpotID 50591 (gene symbol not given): 1.01
SpotID 50601, pooled group mean
  mean group, SRP19: 0.95
SpotID 50639, MAA and Josa vs. Clari
  group mean, gene PDIR: 0.91
SpotID 50643, MAA and Josa vs. Clari
  group mean, gene PROS1: 0.93
SpotID 50645, pooled group mean
  mean group, BET1: 0.84
SpotID 50654, MAA and Josa vs. Clari
  group mean, gene COPB2: 0.99
SpotID 50659, MAA and Josa vs. Clari
  group mean, gene MAX: 0.95
SpotID 50689, MAA and Josa vs. Clari
  group mean, gene GNB5: 1.00
SpotID 50736, MAA and Josa vs. Clari
  group mean, gene PRKDC: 1.07
SpotID 50736, pooled group mean
  mean group, PRKDC: 1.07
SpotID 50738, MAA and Josa vs. Clari
  group mean, gene AD022: 0.94
SpotID 50738, pooled group mean
  mean group, AD022: 0.94
